Data reported in article PMC8571282 (Nature Communications, 2021).
Like-named read-outs stand apart in the source and are kept apart here.

System: SARS-CoV-2 WA1/2020
Assay type: in vivo, ferret (Mustela putorius furo)
Settings: for Transform of Nasal lavage titer, Mean 2 (treated group) / Transform of Nasal lavage titer, Mean Diff. (Vehicle vs. treated): Fig 3b; for Transform of Nasal lavage titer, Mean 2 (treated group) / Transform of Nasal lavage titer, Mean Diff. (Vehicle vs. treated) / Transform of Nasal Turbinate titer, Mean 2 (treated group) / Transform of Nasal Turbinate titer, Mean Diff. (Vehicle vs. treated): b.i.d.; for Transform of Nasal Turbinate titer, Mean 2 (treated group) / Transform of Nasal Turbinate titer, Mean Diff. (Vehicle vs. treated): Fig 3c; for Transform of Nasal Lavage RNA copies, Mean 2 (treated group) / Transform of Nasal Lavage RNA copies, Mean Diff. (Vehicle vs. treated): Fig 3f
Wherever Transform of Nasal Lavage RNA copies, Mean 2 (treated group) is given: unit not given here.
Wherever Transform of Nasal Lavage RNA copies, Mean Diff. (Vehicle vs. treated) is given: unit not given here.
Wherever Transform of Nasal lavage titer, Mean 2 (treated group) is given: unit not given here.
Wherever Transform of Nasal lavage titer, Mean Diff. (Vehicle vs. treated) is given: unit not given here.

CC(C)C(=O)OCC1OC(C#N)(c2ccc3c(N)ncnn23)C(OC(=O)C(C)C)C1OC(=O)C(C)C (centres unmarked) [GS-621763]
Transform of Nasal lavage titer, Mean 2 (treated group) (Day 0, 3 mg/kg): 0.699
Transform of Nasal lavage titer, Mean Diff. (Vehicle vs. treated) (Day 0, 3 mg/kg): 0
Transform of Nasal lavage titer, Mean 2 (treated group) (Day 0, 10 mg/kg): 0.699
Transform of Nasal lavage titer, Mean Diff. (Vehicle vs. treated) (Day 0, 10 mg/kg): 0
Transform of Nasal lavage titer, Mean 2 (treated group) (Day 0.5, 3 mg/kg): 2.775
Transform of Nasal lavage titer, Mean Diff. (Vehicle vs. treated) (Day 0.5, 3 mg/kg): -0.18
Transform of Nasal lavage titer, Mean 2 (treated group) (Day 0.5, 10 mg/kg): 2.413
Transform of Nasal lavage titer, Mean Diff. (Vehicle vs. treated) (Day 0.5, 10 mg/kg): 0.1817
Transform of Nasal lavage titer, Mean 2 (treated group) (Day 1, 3 mg/kg): 2.834
Transform of Nasal lavage titer, Mean Diff. (Vehicle vs. treated) (Day 1, 3 mg/kg): 0.8732
Transform of Nasal lavage titer, Mean 2 (treated group) (Day 1, 10 mg/kg): 2.126
Transform of Nasal lavage titer, Mean Diff. (Vehicle vs. treated) (Day 1, 10 mg/kg): 1.581
Transform of Nasal lavage titer, Mean 2 (treated group) (Day 1.5, 3 mg/kg): 3.42
Transform of Nasal lavage titer, Mean Diff. (Vehicle vs. treated) (Day 1.5, 3 mg/kg): 1.236
Transform of Nasal lavage titer, Mean 2 (treated group) (Day 1.5, 10 mg/kg): 2.277
Transform of Nasal lavage titer, Mean Diff. (Vehicle vs. treated) (Day 1.5, 10 mg/kg): 2.379
Transform of Nasal lavage titer, Mean 2 (treated group) (Day 2, 3 mg/kg): 3.882
Transform of Nasal lavage titer, Mean Diff. (Vehicle vs. treated) (Day 2, 3 mg/kg): 0.3882
Transform of Nasal lavage titer, Mean 2 (treated group) (Day 2, 10 mg/kg): 1.369
Transform of Nasal lavage titer, Mean Diff. (Vehicle vs. treated) (Day 2, 10 mg/kg): 2.901
Transform of Nasal lavage titer, Mean 2 (treated group) (Day 2.5, 3 mg/kg): 3.714
Transform of Nasal lavage titer, Mean Diff. (Vehicle vs. treated) (Day 2.5, 3 mg/kg): 0.4855
Transform of Nasal lavage titer, Mean 2 (treated group) (Day 2.5, 10 mg/kg): 1.314
Transform of Nasal lavage titer, Mean Diff. (Vehicle vs. treated) (Day 2.5, 10 mg/kg): 2.886
Transform of Nasal lavage titer, Mean 2 (treated group) (Day 3, 3 mg/kg): 3.088
Transform of Nasal lavage titer, Mean Diff. (Vehicle vs. treated) (Day 3, 3 mg/kg): 0.713
Transform of Nasal lavage titer, Mean 2 (treated group) (Day 3, 10 mg/kg): 0.8495
Transform of Nasal lavage titer, Mean Diff. (Vehicle vs. treated) (Day 3, 10 mg/kg): 2.952
Transform of Nasal lavage titer, Mean 2 (treated group) (Day 3.5, 3 mg/kg): 3.452
Transform of Nasal lavage titer, Mean Diff. (Vehicle vs. treated) (Day 3.5, 3 mg/kg): 0.4247
Transform of Nasal lavage titer, Mean 2 (treated group) (Day 3.5, 10 mg/kg): 1.758
Transform of Nasal lavage titer, Mean Diff. (Vehicle vs. treated) (Day 3.5, 10 mg/kg): 2.118
Transform of Nasal lavage titer, Mean 2 (treated group) (Day 4, 3 mg/kg): 3.139
Transform of Nasal lavage titer, Mean Diff. (Vehicle vs. treated) (Day 4, 3 mg/kg): 0.849
Transform of Nasal lavage titer, Mean 2 (treated group) (Day 4, 10 mg/kg): 1
Transform of Nasal lavage titer, Mean Diff. (Vehicle vs. treated) (Day 4, 10 mg/kg): 2.988
Transform of Nasal Turbinate titer, Mean 2 (treated group) (3 mg/kg): 4.557
Transform of Nasal Turbinate titer, Mean Diff. (Vehicle vs. treated) (3 mg/kg): 1.366
Transform of Nasal Turbinate titer, Mean 2 (treated group) (10 mg/kg): 3.042
Transform of Nasal Turbinate titer, Mean Diff. (Vehicle vs. treated) (10 mg/kg): 2.881
Transform of Nasal Lavage RNA copies, Mean 2 (treated group) (Row 1 (time), 3mg/kg b.i.d.): 0
Transform of Nasal Lavage RNA copies, Mean Diff. (Vehicle vs. treated) (Row 1 (time), 3mg/kg b.i.d.): 0
Transform of Nasal Lavage RNA copies, Mean 2 (treated group) (Row 1 (time), 10mg/kg b.i.d.): 0
Transform of Nasal Lavage RNA copies, Mean Diff. (Vehicle vs. treated) (Row 1 (time), 10mg/kg b.i.d.): 0
Transform of Nasal Lavage RNA copies, Mean 2 (treated group) (Row 2 (time), 3mg/kg b.i.d.): 5.027
Transform of Nasal Lavage RNA copies, Mean Diff. (Vehicle vs. treated) (Row 2 (time), 3mg/kg b.i.d.): 0.585
Transform of Nasal Lavage RNA copies, Mean 2 (treated group) (Row 2 (time), 10mg/kg b.i.d.): 4.315
Transform of Nasal Lavage RNA copies, Mean Diff. (Vehicle vs. treated) (Row 2 (time), 10mg/kg b.i.d.): 1.297
Transform of Nasal Lavage RNA copies, Mean 2 (treated group) (Row 3 (time), 3mg/kg b.i.d.): 5.927
Transform of Nasal Lavage RNA copies, Mean Diff. (Vehicle vs. treated) (Row 3 (time), 3mg/kg b.i.d.): 0.2134
Transform of Nasal Lavage RNA copies, Mean 2 (treated group) (Row 3 (time), 10mg/kg b.i.d.): 4.129
Transform of Nasal Lavage RNA copies, Mean Diff. (Vehicle vs. treated) (Row 3 (time), 10mg/kg b.i.d.): 2.012
Transform of Nasal Lavage RNA copies, Mean 2 (treated group) (Row 4 (time), 3mg/kg b.i.d.): 5.77
Transform of Nasal Lavage RNA copies, Mean Diff. (Vehicle vs. treated) (Row 4 (time), 3mg/kg b.i.d.): -0.1446
Transform of Nasal Lavage RNA copies, Mean 2 (treated group) (Row 4 (time), 10mg/kg b.i.d.): 3.777
Transform of Nasal Lavage RNA copies, Mean Diff. (Vehicle vs. treated) (Row 4 (time), 10mg/kg b.i.d.): 1.849
